Square brackets hold non-standard residues; d marks the D form. Peptide text beside a SMILES is read from it. dPhe(4-Cl) = N[C@H](Cc1ccc(Cl)cc1)C(=O)O; d2Nal = N[C@H](Cc1ccc2ccccc2c1)C(=O)O; dCit = NC(=O)NCCC[C@@H](N)C(=O)O; d3Pal = N[C@H](Cc1cccnc1)C(=O)O
Tests used:
clinical [1] = conditions: human, in vivo, iv, CL
clinical [2] = conditions: human, in vivo, iv, t1/2
clinical [3] = conditions: human, in vivo, iv
clinical [4] = conditions: human, in vivo, iv, Vdss
clinical [5] = conditions: human, in vivo, iv; remark: listed apart in the source

SMILES	clearance (clinical [1])	half-life (clinical [2])	fraction unbound (clinical [3])	Vd (clinical [4])	MRT (clinical [5])
CNC(=O)c1cccc2c(Nc3ccc(NS(C)(=O)=O)cc3OC)c3cccc(C)c3nc12 [ASULACRINE]	2.6 mL/min/kg	2.4 h	0.0011	0.3 L/kg	1.9 h
O=C1C(O)=C([C@H]2CC[C@H](c3ccc(Cl)cc3)CC2)C(=O)c2ccccc21 [ATOVAQUONE]	0.15 mL/min/kg	63 h	0.001	0.6 L/kg	67 h
CN1CCN(CCCCN2C(=O)CN(/N=C/c3ccc(-c4ccc(Cl)cc4)o3)C2=O)CC1 [AZIMILIDE]	2.4 mL/min/kg	79 h	0.06	13 L/kg	100 h
CC1(C)S[C@@H]2[C@H](NC(=O)[C@H](NC(=O)N3CCNC3=O)c3ccccc3)C(=O)N2[C@H]1C(=O)O [AZLOCILLIN]	2.5 mL/min/kg	1.2 h	0.65	0.26 L/kg	1.7 h
CCC(=O)OCC(=O)[C@@]1(OC(=O)CC)[C@@H](C)C[C@H]2[C@@H]3CCC4=CC(=O)C=C[C@]4(C)[C@@]3(Cl)[C@@H](O)C[C@@]21C [BECLOMETHASONE DIPROPIONATE]	36 mL/min/kg	0.5 h	0.13	0.29 L/kg	0.1 h
COc1ccc(CCNCC(O)COc2cccc(C)c2)cc1OC (stereo not given) [BEVANTOLOL]	5.5 mL/min/kg	1.9 h	0.015	0.67 L/kg	2 h
C[C@@H](O)[C@H]1C(=O)N2C(C(=O)[O-])=C(SC3Cn4cnc[n+]4C3)[C@H](C)[C@H]12 (stereo not given in full) [BIAPENEM]	2.5 mL/min/kg	1.1 h	0.92	0.2 L/kg	1.3 h
COc1ccccc1Oc1c(NS(=O)(=O)c2ccc(C(C)(C)C)cc2)nc(-c2ncccn2)nc1OCCO [BOSENTAN]	2.1 mL/min/kg	4.1 h	0.037	0.29 L/kg	2.3 h
Nc1c(CC(=O)O)cccc1C(=O)c1ccc(Br)cc1 [BROMFENAC]	1.3 mL/min/kg	2.6 h	0.0011	0.11 L/kg	1.5 h
CCN(CC)CCNC(=O)c1cc(Br)c(N)cc1OC [BROMOPRIDE]	13 mL/min/kg	2.9 h	0.6	3.1 L/kg	4 h
Cc1nnc2n1-c1sc(Br)cc1C(c1ccccc1Cl)=NC2 [BROTIZOLAM]	2 mL/min/kg	4.8 h	0.092	0.75 L/kg	6 h
CCCC(=O)N1CCCN(c2nc(N)c3cc(OC)c(OC)cc3n2)CC1 [BUNAZOSIN]	4.8 mL/min/kg	2 h	0.06	0.72 L/kg	2.5 h
Oc1ccc2c(c1)[C@@]13CCCC[C@@]1(O)[C@@H](C2)N(CC1CCC1)CC3 [BUTORPHANOL]	41 mL/min/kg	4.8 h	0.17	12 L/kg	5.3 h
O=NN(CCCl)C(=O)NCCCl [CARMUSTINE]	78 mL/min/kg	0.37 h	0.23	1.2 L/kg	0.26 h
NC(=O)OC[C@@H]1[C@H](NC(=O)/C(=N\OCC(=O)O)c2csc(N)n2)C(=O)N1S(=O)(=O)O [CARUMONAM]	1.5 mL/min/kg	1.6 h	0.72	0.18 L/kg	2 h
Cn1nnnc1SCC1=C(C(=O)O)N2C(=O)[C@@H](NC(=O)[C@H](O)c3ccccc3)[C@H]2SC1 [CEFAMANDOLE]	3.6 mL/min/kg	0.75 h	0.25	0.16 L/kg	0.75 h
CO[C@@]1(NC(=O)CSCC#N)C(=O)N2C(C(=O)O)=C(CSc3nnnn3C)CS[C@@H]21 [CEFMETAZOLE]	1.5 mL/min/kg	1.5 h	0.15	0.13 L/kg	1.5 h
CO/N=C(\C(=O)N[C@@H]1C(=O)N2C(C(=O)O)=C(CSc3nc(C)c(CC(=O)O)s3)CS[C@H]12)c1csc(N)n1 [CEFODIZIME]	0.61 mL/min/kg	4.2 h	0.18	0.054 L/kg	1.5 h
NCc1ccccc1CC(=O)N[C@@H]1C(=O)N2C(C(=O)O)=C(CSc3nnnn3CC(=O)O)CS[C@H]12 [CEFORANIDE]	0.66 mL/min/kg	3 h	0.19	0.17 L/kg	4.3 h
CO/N=C(\C(=O)N[C@@H]1C(=O)N2C(C(=O)O)=C(COC(C)=O)CS[C@H]12)c1csc(N)n1 [CEFOTAXIME]	2.7 mL/min/kg	1.2 h	0.6	0.19 L/kg	1.2 h

SMILES	clearance (clinical [1])	half-life (clinical [2])	fraction unbound (clinical [3])	Vd (clinical [4])	MRT (clinical [5])
CO[C@@]1(NC(=O)Cc2cccs2)C(=O)N2C(C(=O)O)=C(COC(N)=O)CS[C@@H]21 [CEFOXITIN]	3.6 mL/min/kg	0.81 h	0.73	0.17 L/kg	0.79 h
CO/N=C(\C(=O)N[C@@H]1C(=O)N2C(C(=O)[O-])=C(C[n+]3cccc4c3CCC4)CS[C@H]12)c1csc(N)n1 [CEFPIROME]	1.9 mL/min/kg	1.7 h	0.9	0.24 L/kg	2.1 h
CO/N=C(\C(=O)N[C@@H]1C(=O)N2C(C(=O)O)=CCS[C@H]12)c1csc(N)n1 [CEFTIZOXIME]	2.1 mL/min/kg	1.5 h	0.72	0.2 L/kg	1.6 h
Nc1nc(/C(=N/O)C(=O)N[C@@H]2C(=O)N3C(C(=O)O)=C(/C=C4\CCN([C@@H]5CCNC5)C4=O)CS[C@H]23)ns1 [CEFTOBIPROLE]	1.5 mL/min/kg	3.3 h	0.62	0.27 L/kg	3 h
CO/N=C(\C(=O)N[C@@H]1C(=O)N2C(C(=O)O)=C(CSc3nc(=O)c(=O)[nH]n3C)CS[C@H]12)c1csc(N)n1 [CEFTRIAXONE]	0.26 mL/min/kg	8.6 h	0.052	0.085 L/kg	5.4 h
CO/N=C(\C(=O)N[C@@H]1C(=O)N2C(C(=O)O)=C(COC(N)=O)CS[C@H]12)c1ccco1 [CEFUROXIME]	2.2 mL/min/kg	1.1 h	0.12	0.15 L/kg	1.1 h
O=C(Cc1cccs1)N[C@@H]1C(=O)N2C(C(=O)[O-])=C(C[n+]3ccccc3)CS[C@H]12 [CEPHALORIDINE]	3.3 mL/min/kg	1.5 h	0.8	0.46 L/kg	2.3 h
CC(=O)OCC1=C(C(=O)O)N2C(=O)[C@@H](NC(=O)Cc3cccs3)[C@H]2SC1 [CEPHALOTHIN]	1.8 mL/min/kg	0.95 h	0.22	0.07 L/kg	0.65 h
CC(=O)OCC1=C(C(=O)O)N2C(=O)[C@@H](NC(=O)CSc3ccncc3)[C@H]2SC1 [CEPHAPIRIN]	2.7 mL/min/kg	1.2 h	0.55	0.13 L/kg	0.8 h
CC(=O)N[C@H](Cc1ccc2ccccc2c1)C(=O)N[C@H](Cc1ccc(Cl)cc1)C(=O)N[C@H](Cc1cccnc1)C(=O)N[C@@H](CO)C(=O)N[C@@H](Cc1ccc(O)cc1)C(=O)N[C@H](CCCNC(N)=O)C(=O)N[C@@H](CC(C)C)C(=O)N[C@@H](CCCNC(=N)N)C(=O)N1CCC[C@H]1C(=O)N[C@H](C)C(N)=O [CETRORELIX] (Ac-[d2Nal][dPhe(4-Cl)][d3Pal]SY[dCit]LRP[dA]-NH2)	1.2 mL/min/kg	12 h	0.14	0.39 L/kg	5.4 h
CC1(C)C[C@@H]1C(=O)N/C(=C\CCCCSC[C@H](N)C(=O)O)C(=O)O [CILASTATIN]	2.3 mL/min/kg	0.86 h	0.6	0.15 L/kg	1.1 h
Nc1nc(Cl)nc2c1ncn2[C@H]1C[C@H](O)[C@@H](CO)O1 [CLADRIBINE]	14 mL/min/kg	16 h	0.79	7.7 L/kg	9.2 h
Cc1ncsc1CCCl [CLOMETHIAZOLE]	33 mL/min/kg	4.5 h	0.36	6.6 L/kg	3.3 h
CCOC(=O)[C@@H]1C2CCC(C[C@@H]1OC(=O)c1ccccc1)N2C (stereo not given in full) [COCAETHYLENE]	13 mL/min/kg	1.5 h	0.64	1.6 L/kg	2 h
CN(C)/N=N/c1[nH]cnc1C(N)=O [DACARBAZINE]	2.6 mL/min/kg	6.2 h	1	1.2 L/kg	7.8 h
CN[C@H]1C(=O)N[C@@H]2Cc3ccc(cc3)Oc3cc4cc(c3O[C@@H]3O[C@H](C(=O)O)[C@@H](O)[C@H](O)[C@H]3NC(=O)CCCCCCCCC(C)C)Oc3ccc(cc3Cl)[C@@H](O)[C@@H]3NC(=O)[C@H](NC(=O)[C@@H]4NC(=O)[C@@H](NC2=O)c2cc(cc(O)c2Cl)Oc2cc1ccc2O)c1ccc(O)c(c1)-c1c(O[C@H]2O[C@H](CO)[C@@H](O)[C@H](O)[C@@H]2O)cc(O)cc1[C@@H](C(=O)NCCCN(C)C)NC3=O [DALBAVANCIN]	0.01 mL/min/kg	170 h	0.02	0.14 L/kg	230 h
CCN(CC)CCS(=O)(=O)[C@@H]1CCN2C(=O)c3coc(n3)CC(=O)C[C@H](O)/C=C(C)/C=C/CNC(=O)/C=C/[C@@H](C)[C@@H](C(C)C)OC(=O)[C@@H]12 [DALFOPRISTIN]	16 mL/min/kg	0.74 h	0.82	0.39 L/kg	0.41 h
O=C1CN=C(c2ccccc2Cl)c2cc(Cl)ccc2N1 [DELORAZEPAM]	0.17 mL/min/kg	200 h	0.051	2.2 L/kg	220 h
CN(C)[C@@H]1C(O)=C(C(N)=O)C(=O)[C@@]2(O)C(O)=C3C(=O)c4c(O)ccc(Cl)c4[C@@H](O)[C@H]3C[C@@H]12 [DEMECLOCYCLINE]	1.1 mL/min/kg	12 h	0.59	1.3 L/kg	17 h

From ChEMBL document CHEMBL1614632, “Trend analysis of a database of intravenous pharmacokinetic parameters in humans for 670 drug compounds” (Drug Metab Dispos, 2008)
